Measurements from the supplement of paper PMC10307832.

Tests used:
Test in all cases: relative viability (nuclei count vs DMSO), 5 days (fraction); higher = more cells survive
RU-SKI 43 + Luminespib = compound: CC[C@@H](C)CNCC(=O)N1CCC2=C([C@@H]1COC3=CC=CC(=C3)C)C=CS2 [RU-SKI 43] + CCNC(=O)c1noc(-c2cc(C(C)C)c(O)cc2O)c1-c1ccc(CN2CCOCC2)cc1 [Luminespib] (partner 0.01 µM)
Outline: (§1)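 Lung cancer cell lines were seeded in 1536-well plates and dosed by pin tool the next day, with either a single drug or a fixed anchor-drug dose combined with five library-drug doses (not always all listed) spaced in √10 steps. Five days later, one step fixed the cells and stained their nuclei (final 0.05% Triton X-100, 1% formaldehyde, 1 ug/ml Hoechst), and nuclei were counted on 4× images. Relative viability is the nuclei count in treated wells divided by the count in vehicle wells, and each value is the median of duplicate plates.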

Irinotecan + Lapatinib = compound: CCc1c2c(nc3ccc(OC(=O)N4CCC(N5CCCCC5)CC4)cc13)-c1cc3c(c(=O)n1C2)COC(=O)[C@]3(O)CC [Irinotecan] + CS(=O)(=O)CCNCc1ccc(-c2ccc3ncnc(Nc4ccc(OCc5cccc(F)c5)c(Cl)c4)c3c2)o1 [Lapatinib] (partner 2 µM)
Outline: as §1

RU-SKI 43 + AZD7762 = compound: CC[C@@H](C)CNCC(=O)N1CCC2=C([C@@H]1COC3=CC=CC(=C3)C)C=CS2 [RU-SKI 43] + NC(=O)Nc1cc(-c2cccc(F)c2)sc1C(=O)N[C@H]1CCCNC1 [AZD7762] (partner 0.2 µM)
Outline: as §1

RU-SKI 43 + Crizotinib = compound: CC[C@@H](C)CNCC(=O)N1CCC2=C([C@@H]1COC3=CC=CC(=C3)C)C=CS2 [RU-SKI 43] + C[C@@H](Oc1cc(-c2cnn(C3CCNCC3)c2)cnc1N)c1c(Cl)ccc(F)c1Cl [Crizotinib] (partner 1 µM)
Outline: as §1

Cell Line	relative viability (RU-SKI 43 + Luminespib; first compound 0.1 µM)	relative viability (RU-SKI 43 + Luminespib; first compound 0.3162 µM)	relative viability (RU-SKI 43 + Luminespib; first compound 1 µM)	relative viability (RU-SKI 43 + Luminespib; first compound 3.162 µM)	relative viability (RU-SKI 43 + Luminespib; first compound 10 µM)	relative viability (Irinotecan + Lapatinib; first compound 0.6325 µM)	relative viability (Irinotecan + Lapatinib; first compound 2 µM)	relative viability (Irinotecan + Lapatinib; first compound 6.325 µM)	relative viability (Irinotecan + Lapatinib; first compound 20 µM)	relative viability (RU-SKI 43 + AZD7762; first compound 0.1 µM)	relative viability (RU-SKI 43 + AZD7762; first compound 0.3162 µM)	relative viability (RU-SKI 43 + AZD7762; first compound 1 µM)	relative viability (RU-SKI 43 + AZD7762; first compound 3.162 µM)	relative viability (RU-SKI 43 + AZD7762; first compound 10 µM)	relative viability (RU-SKI 43 + Crizotinib; first compound 0.1 µM)	relative viability (RU-SKI 43 + Crizotinib; first compound 0.3162 µM)	relative viability (RU-SKI 43 + Crizotinib; first compound 1 µM)	relative viability (RU-SKI 43 + Crizotinib; first compound 3.162 µM)	relative viability (RU-SKI 43 + Crizotinib; first compound 10 µM)
NCI-H1915	0.837	1.44	1.02	0.869	0.895	0.434	0.373	0.147	0.15	0.699	0.833	0.702	0.672	0.688	0.913	1.36	0.938	0.957	0.959
NCI-H647	0.163	0.325	0.236	0.123	0.221	0.865	0.44	0.199	0.138	0.358	0.553	0.583	0.44	0.499	1.29	1.23	1.15	1.14	0.833
NCI-H1944	0.643	0.751	0.832	0.819	0.662	0.563	0.369	0.178	0.187	0.591	0.579	0.447	0.589	0.502	1.17	1.19	1.25	1.25	0.991
NCI-H23	0.209	0.181	0.209		0.224	0.653	0.466	0.277	0.271	0.197	0.229	0.202	0.216	0.154	0.472	0.42	0.451	0.598	0.39
NCI-H1792	0.462	0.568	0.447	0.492	0.456	0.92	0.949	0.202	0.11	0.623	0.753	0.656	0.712	0.686	1.09	1.53	1.21	1	0.921
NCI-H358	0.59	0.292	0.252	0.389	0.307	0.406	0.47	0.327	0.21	0.475	0.585	0.574	0.591	0.484	0.604	0.484	0.512	0.578	0.35
BEN	0.423	0.277	0.525	0.218	0.421	0.542	0.418	0.244	0.338	0.801	0.652	0.786	0.642	0.743	0.933	1.14	1.03	0.865	0.758
A-427	0.851	1.2	1	0.668	0.789		0.752	0.221	0.179	0.726	0.761	0.765	0.851	0.674	0.832	0.809	0.904		0.651
EMC-BAC-2	1.18	1.26	1.32	1.16	1.19	0.774	0.578	0.27	0.246	1.1	1.1	1.27	1.13	1.09	0.789	0.793	0.811	0.828	0.751
NCI-H1975	0.199	0.172	0.229	0.157	0.25	0.86	0.689	0.302	0.14	0.763	0.748	0.97	0.671	0.803	1.04	1.3	1.12	0.925	0.709
NCI-H1755	0.5	0.3	0.515	0.472	0.301	0.883	0.9	0.309	0.318	0.42	0.504	0.46	0.411	0.359	0.809	1.15	0.953	0.889	0.74
EKVX	0.939	0.809	0.758	0.932	0.833	0.222	0.256	0.16	0.17	0.605	0.714	0.874	0.707	0.658	0.902	1.01	0.926	0.987	0.713
EPLC-272H	0.467	0.182	0.73	0.423	0.278	0.509	0.758	0.211	0.267	0.242	0.194	0.195	0.345	0.26	0.981	0.964	1.01		0.812
LCLC-97TM1	0.902	0.927	0.876	0.898	0.85	0.317	0.263	0.156	0.173	0.373	0.184	0.255	0.303	0.239	0.424		0.331	0.267	0.287
NCI-H2085	0.398	0.481	0.591	0.431	0.407	0.592	0.608	0.473	0.515	1.02	0.856	0.948	1.08	1.02	0.881	0.709	0.805	0.783	0.761
HCC-15	0.427	0.249	0.478	0.285	0.419	0.463	0.336	0.17	0.155	1.12	1.17	1.15	1.24	1.19	0.806	1.01	0.962	0.873	0.807
RERF-LC-KJ	1.25	1.01	1.44	1.3	1	0.833	0.692	0.439	0.364	0.97	1.01	1.21	1.17	1.04	0.904	0.86	0.772	0.862	0.77
